Source: the METLIN SMRT retention time set (Domingo-Almenara et al. 2019)

Test: gradient 5% acetonitrile 3 min, to 50% in 2 min, to 85% in 15 min, held 3 min, 100 µL/min
Details: column: Zorbax Extend-C18 2.1 x 50 mm; eluents: water / acetonitrile, 0.1% formic acid
Summary of the method: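 Each retention time is based on an adduct peak selected computationally and verified by manual inspection. Measurements used HPLC–quadrupole time-of-flight mass spectrometry in positive and negative ionization mode on mixtures of ~100 pure standards. Chromatography ran on a Zorbax Extend-C18 column (2.1 × 50 mm, 1.8 μm) at 100 μL/min with water and acetonitrile, each containing 0.1% formic acid, and dead and dwell volumes of 40 μL and 900 μL.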

SMILES	RP-LC retention time
Cc1cc(N2CCN(C(=O)c3ccc(F)cc3Cl)CC2)nc(N2CCOCC2)n1	637 s
Cc1cccc(-n2ccc(=O)c(-c3nc(-c4ccc5c(c4)OCO5)no3)n2)c1	894 s
Cc1ccccc1C(=O)CC1(O)C(=O)Nc2ccc(F)cc21 (configuration not stated)	730 s
Cc1ccc(CNC(=O)Nc2cnc3c(c2)CCC3)cc1	534 s
Cc1cccc(-c2nnc(C)c(NCc3ccc(C)o3)n2)c1	736 s
O=C1C(c2ccncc2)N(Cc2ccccc2)C(=O)CN1c1ccccc1 (configuration not stated)	684 s
COc1ccc(-c2nc3cnccn3c2Nc2ccc(C)cc2Br)cc1	1040 s
O=C([C@@H]1C[C@H](F)CN1S(=O)(=O)c1ccc(F)cc1)N1CCOCC1	664 s
CCOCCCNC(=O)C1CCCN(c2ncc(-c3ccc(F)cc3)cn2)C1 (configuration not stated)	886 s
Cc1cc(C)c(NC(=O)COc2cccc3c(=O)n(C)ccc23)c(C)c1	805 s
COc1ccc2[nH]c(C(=O)N3CCN(C(=O)Cc4cccs4)CC3)cc2c1	758 s
O=C(Cn1cnc2ccccc2c1=O)N1CCC(Cn2cccn2)CC1	616 s
CN(Cc1ccccc1)C(=O)CC(=O)Nc1ccc2nc3n(c(=O)c2c1)CCCCC3	702 s
CCOC(=O)c1[nH]c(C)c(CCC(=O)NCCN2CCOCC2)c1C	597 s
Cc1nnc(NC(=O)C2CCN(C(=O)c3ccc(F)cc3)CC2)s1	624 s
CSc1cccc(NC(=O)N2CC(c3nc(C)no3)C3(CCOCC3)C2)c1 (configuration not stated)	760 s
O=S(=O)(NCC1Cn2cccc2CN1Cc1ccccc1)c1ccccc1 (configuration not stated)	763 s
CC(C)(CO)NC(=O)Cc1ccc(NC(=O)CSc2ccc(F)cc2)cc1	681 s
CCOC(=O)c1[nH]c(C)c(CCC(=O)N2CCC(C(=O)NCCC3=CCCCC3)CC2)c1C	864 s
CC(C)c1noc(C2(NC(=O)c3cccc(Cl)c3)CCCCC2)n1	1130 s
CC(C)Cn1c(=O)c(N2CCN(C(=O)c3ccccc3Cl)CC2)nc2ccncc21	682 s
CN(C)C/C=C/C(=O)Nc1ccc(C(=O)Nc2cccc(Nc3ncc(Cl)c(-c4c[nH]c5ccccc45)n3)c2)cc1	800 s
CC1Oc2ccc(S(=O)(=O)N3CCC(C(=O)NC4CCCC4)CC3)cc2NC1=O (configuration not stated)	740 s

SMILES	RP-LC retention time
COC(=O)C1=CN(c2cc(F)ccc2C)c2ccccc2S1(=O)=O	832 s
O=C(NCc1ccc2c(c1)OCO2)C(=O)c1cn(CC(=O)N2CCOCC2)c2ccccc12	804 s
CCOc1ccc(NC(=O)c2sc(N3CCCC3=O)nc2CC)cc1	875 s
CNS(=O)(=O)CCCOc1cccc2c1OC(C)(C)C2	776 s
O=C(NCCc1ccc(Cl)cc1)C1CCCN(c2ncnc3c2nc2n3CCCCC2)C1 (configuration not stated)	838 s
COc1ccccc1NC(=O)C1CCN(c2cnc(N3CCCCCC3)nc2)CC1	826 s
CS(=O)(=O)N1CCC(OC2CCN(C(=O)Cc3c[nH]c4ccccc34)CC2)CC1	688 s
COc1ccc(Nc2c(C(=O)N3CCCCC3C)cnc3nc(C)ccc23)cc1OC (configuration not stated)	598 s
COc1cccc(N2CCN(c3ccnc(SCC(=O)Nc4ccc(F)c(Cl)c4)n3)CC2)c1	806 s
Cc1oc(-c2ccc(NC(=O)c3ccc(N(C)C)cc3)cc2)nc1Cn1cccn1	875 s
O=C(c1cccs1)N1CCN(c2nnc3ccc(Cl)cn23)CC1	691 s
O=C(NCc1ccncc1)C1CCCN(c2ncnc3c2oc2ccccc23)C1 (configuration not stated)	579 s
CCOc1ccc2cccc(NC(=O)c3ccc(S(=O)(=O)N(C)C)cc3)c2n1	1140 s
COc1ccc2nc(C(=O)NCc3ccc(Cl)cc3)cn2n1	830 s
Cc1[nH]c(=O)[nH]c(=O)c1S(=O)(=O)NC1CCCC1	620 s
Cc1cccc(S(=O)(=O)N2CCc3nc(-c4ccc(F)cc4)ncc3C2)c1	1140 s
CCN(CC)CCNC(=O)Cn1nc(-n2cccc2)c2c(C)cc(C)nc21	636 s
Cc1cc(C)cc(S(=O)(=O)NCc2c(-c3ccccc3)nc3sc(C)nn23)c1	921 s
COc1ccc2c(c1)CC(NC(=O)NCc1ccc(OC)cc1OC)CO2 (configuration not stated)	780 s
CCS(=O)(=O)N1CCCCCC1c1ccccc1Cl (configuration not stated)	1090 s
CCOC(=O)c1c(S(=O)(=O)N2CCC(C(=O)N3CCCC3)CC2)c(C)n(C)c1C	706 s
COc1ccc(C2(C(=O)N3CCC(Cc4nc(-c5ccccc5)n[nH]4)C3)CC2)cc1 (configuration not stated)	734 s
Clc1ccc(-c2ccc(CNCC3CCCO3)o2)cc1 (configuration not stated)	688 s

SMILES	RP-LC retention time
CCCCN1CC(=O)N(c2ccc(OC)cc2)[C@@H]2CS(=O)(=O)C[C@@H]21	719 s
Cc1cccc(-c2nnc(Cc3nc(C(C)(C)C)no3)o2)c1	1000 s
COc1ccc(C(O)CN2CCN(c3ccc(OC)cc3)CC2)cc1 (configuration not stated)	647 s
Cc1nn(CC(=O)NCCCOC(C)C)c(=O)c2c(-n3cccc3)n(-c3ccc(Cl)cc3)nc12	997 s
COc1ccc(Nc2c(-c3ccc(N(C)C)cc3)nc3ncccn23)cc1	684 s
COc1ccc(CNC(=O)C2=Cc3cccc(OC)c3OC2)cc1OC	788 s
CN(CCC#N)C(=O)Cn1nc(Cc2cccnc2)c2ccccc2c1=O	563 s
COc1ccc(C)cc1NC(=O)CN1C(=O)C2CCCCN2c2ccc(S(=O)(=O)N(C)C)cc21 (configuration not stated)	1000 s
c1ccc(-c2nc(-c3ccncc3)no2)c(OC2CCN(Cc3ccsc3)C2)c1 (configuration not stated)	679 s
Cc1ccc(C)c(S(=O)(=O)N2CCC(C)(C(=O)NCc3ccccc3C)CC2)c1	1050 s
COc1ccc(-n2nc3c(N4CCCC(C(=O)NCCc5cccs5)C4)nnc(C)c3c2C)cc1 (configuration not stated)	722 s
CSc1ccccc1NC(=O)C(=O)NCC1CCN(Cc2cc(C)oc2C)CC1	615 s
CCn1cc(S(=O)(=O)N2CC(c3nc(CCOCc4ccccc4)no3)C2)cn1	856 s
COC(=O)c1cnc(N2CCN(c3ccc(OC)cc3)CC2)c2ccccc12	980 s
Cc1cccc(N2CCN(Cc3nc(-c4ccc(N5CCC(C)CC5)nc4)no3)CC2)c1C	1280 s
CN1C(=O)C2CCCCN2c2ccc(C(=O)NCCC3=CCCCC3)cc21 (configuration not stated)	993 s
COc1ccc(CN2N=C(C(=O)N3CCCC3)S(=O)(=O)c3ccccc32)cc1	823 s
Cc1oc(-c2[nH]ncc2C(=O)N2CCCC2)cc1S(=O)(=O)NCc1ccc(F)cc1	709 s
CCC(=O)N1CCc2cc(N3CC(C(=O)Nc4ccccc4)CC3=O)ccc21 (configuration not stated)	720 s
CC(C)COc1cc(=O)n2c(c1C(=O)N1CCN(c3ccccn3)CC1)CCCCC2	591 s
CCC1(O)CCC12CCN(C(=O)CCC1CCCC1)CC2 (configuration not stated)	924 s
